In paper PMC8692581, “A specific inhibitor of ALDH1A3 regulates retinoic acid biosynthesis in glioma stem cells” (Communications Biology, 2021):

How the values were obtained:
ALDH1A3 [1] = target: T1, ALDH1A3 (Homo sapiens, UniProt P47895); experiment: X-ray co-crystal structure ([…] Å); steady-state enzyme inhibition kinetics (IC50 […]); thermal shift MS in GSC-326 lysate; assay type: biochemical
T1 construct: full-length, N-term 6xHis tagged
T1 sequence (P47895 1-512): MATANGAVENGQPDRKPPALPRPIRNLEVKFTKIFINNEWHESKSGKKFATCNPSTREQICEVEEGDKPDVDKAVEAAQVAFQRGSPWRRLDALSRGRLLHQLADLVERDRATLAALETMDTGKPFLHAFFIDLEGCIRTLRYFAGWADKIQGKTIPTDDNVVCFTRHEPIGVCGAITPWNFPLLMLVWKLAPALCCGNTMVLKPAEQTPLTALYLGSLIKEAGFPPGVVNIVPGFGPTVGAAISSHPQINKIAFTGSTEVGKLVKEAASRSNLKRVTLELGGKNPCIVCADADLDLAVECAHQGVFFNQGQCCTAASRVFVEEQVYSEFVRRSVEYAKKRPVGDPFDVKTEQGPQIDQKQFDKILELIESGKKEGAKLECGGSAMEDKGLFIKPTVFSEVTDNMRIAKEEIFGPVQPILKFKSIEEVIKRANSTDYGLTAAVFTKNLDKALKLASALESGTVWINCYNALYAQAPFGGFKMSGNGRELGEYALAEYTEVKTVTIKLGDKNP

ALDH1A1 = target: T2, ALDH1A1 (Homo sapiens, UniProt P00352); experiment: steady-state enzyme kinetics, NADH absorbance at […] nm ([…] activity retained at […] inhibitor); assay type: biochemical
T2 construct: full-length, N-term 6xHis tagged
T2 sequence (P00352 1-501): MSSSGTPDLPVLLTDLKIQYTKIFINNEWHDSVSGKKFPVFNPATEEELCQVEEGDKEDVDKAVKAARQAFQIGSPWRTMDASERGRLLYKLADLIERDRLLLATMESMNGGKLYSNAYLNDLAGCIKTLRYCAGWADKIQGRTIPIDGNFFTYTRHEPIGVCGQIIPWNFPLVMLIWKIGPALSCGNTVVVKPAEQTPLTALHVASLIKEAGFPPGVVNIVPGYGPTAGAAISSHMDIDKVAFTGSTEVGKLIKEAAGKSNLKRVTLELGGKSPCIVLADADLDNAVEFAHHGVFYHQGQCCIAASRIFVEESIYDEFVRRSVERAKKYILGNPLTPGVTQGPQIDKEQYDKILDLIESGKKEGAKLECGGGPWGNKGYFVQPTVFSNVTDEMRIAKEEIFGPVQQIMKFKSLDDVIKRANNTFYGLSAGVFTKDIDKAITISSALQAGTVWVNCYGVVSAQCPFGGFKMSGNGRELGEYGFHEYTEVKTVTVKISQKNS

ALDH1A3 [2] = target: T1, ALDH1A3; experiment: X-ray crystal structure ([…] Å), ternary with MCI-INI-3; crystals grown with […] NAD+; assay type: binding

Row | SMILES | Ki (ALDH1A3 [1]) | Ki (ALDH1A1) | X-ray crystal structure (2.8 Å), ternary with MCI-INI-3; crystals grown with 1 m (ALDH1A3 [2])
1 | COC(=O)c1cc(-c2ccc3c(c2)OCO3)nc2cc(-c3ccccc3)nn12 [MCI-INI-3] | 0.55 ± 0.11 µM | 78.2 ± 14.4 µM | 
2 | NC(=O)c1ccc[n+]([C@@H]2O[C@H](COP(=O)([O-])OP(=O)(O)OC[C@H]3O[C@@H](n4cnc5c(N)ncnc54)[C@H](O)[C@@H]3O)[C@@H](O)[C@H]2O)c1 [NAD^+] |  |  | The ligands NAD^+ and MCI-INI-3 are shown as gray and black sticks.
